According to ChEMBL document CHEMBL1131955, “Solid-phase synthesis of novel inhibitors of farnesyl transferase” (Bioorg Med Chem Lett, 1999):

Key:
[1] = molecular target: Protein farnesyltransferase (Rattus norvegicus, UniProt Q02293+Q04631); assay: In vitro inhibition of rat brain cytosol farnesyl transferase
[2] = molecular target: geranylgeranyltransferase type-I (Rattus norvegicus, UniProt P53610+Q04631); assay: In vitro inhibition of rat brain cytosol Geranylgeranyl transferase type I

SMILES | IC50 [1] | IC50 [2]
C=CCOc1c(F)c(O)c([N+](=O)[O-])c(F)c1F | > 200 µM | > 200 µM
CC(C)=CCC/C(C)=C/CC/C(C)=C/COc1c(F)c(O)c([N+](=O)[O-])c(F)c1F | 6.3 µM | 12.5 µM
O=[N+]([O-])c1c(O)c(F)c(OCc2ccccc2)c(F)c1F | > 200 µM | 58 µM
CCCCCCCCCCCCOc1c(F)c(O)c([N+](=O)[O-])c(F)c1F | > 100 µM | > 100 µM
O=[N+]([O-])c1c(O)c(F)c(OCc2ccc3ccccc3c2)c(F)c1F | 200 µM | > 200 µM
O=[N+]([O-])c1c(O)c(F)c(OCc2ccc(-c3ccccc3)cc2)c(F)c1F | 200 µM | > 200 µM
C=C(C)C1CC=C(COc2c(F)c(O)c([N+](=O)[O-])c(F)c2F)CC1 (centres undefined) | 120 µM | 85 µM
